Measured values as given in patent publication US20100144760A1, “NOVEL COMPOUNDS” (priority 2008, published 2010).
Ends that are not written are not given here.

What was measured:
[1] = biological target: T1, human Orexin-2 receptor (Homo sapiens, UniProt O43614); assay: Antagonist affinity at human Orexin-2 receptor using FLIPR ([Ca2+]i); assay type: cell-based; details: functional pKi from IC50 by modified Cheng-Prusoff correction, read-out: fpKi Orexin 2 receptor (converted)
T1 construct: expressed in transfected cells
T1 sequence (O43614 1-444): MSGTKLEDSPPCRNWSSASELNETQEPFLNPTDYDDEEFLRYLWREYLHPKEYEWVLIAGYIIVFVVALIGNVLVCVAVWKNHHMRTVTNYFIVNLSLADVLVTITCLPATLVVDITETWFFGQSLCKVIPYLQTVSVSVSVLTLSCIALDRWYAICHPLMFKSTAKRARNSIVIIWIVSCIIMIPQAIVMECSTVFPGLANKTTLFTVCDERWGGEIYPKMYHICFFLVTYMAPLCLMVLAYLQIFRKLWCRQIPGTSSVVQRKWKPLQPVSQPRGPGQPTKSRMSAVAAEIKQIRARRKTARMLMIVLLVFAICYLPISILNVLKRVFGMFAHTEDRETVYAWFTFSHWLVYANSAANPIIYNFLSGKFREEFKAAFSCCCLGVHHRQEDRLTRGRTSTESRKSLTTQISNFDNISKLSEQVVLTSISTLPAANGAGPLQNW
Excerpt: (§1) Determination of antagonist affinity at human Orexin-1 and 2 receptors using FLIPR
(§2) Adherent Chinese Hamster Ovary (CHO) cells, stably expressing the recombinant human Orexin-1 or human Orexin-2 receptors or Rat Basophilic Leukaemia Cells (RBL) stably expressing recombinant rat Orexin-1 or rat Orexin-2 receptors were maintained in culture in Alpha Minimum Essential Medium (Gibco/Invitrogen, cat. no.; 22571-020), supplemented with 10% decomplemented foetal bovine serum (Life Technologies, cat. no. 10106-078) and 400 μg/mL Geneticin G418 (Calbiochem, cat. no. 345810). Cells were grown as monolayers under 95%:5% air: CO2 at 37° C.
(§3) The sequences of the human orexin 1, human orexin 2, rat orexin 1 and rat orexin 2 receptors used in this example were as published in Sakurai, T. et al (1998) Cell, 92 pp 573 to 585. Some examples were tested against the human orexin 1 receptor as published in Sakurai et al supra with the exception that the amino acid residue at position 280 was alanine and not glycine.
(§4) Cells were seeded into black clear-bottom 384-well plates (density of 20,000 cells per well) in culture medium as described above and maintained overnight (95%:5% air:CO2 at 37° C.). On the day of the experiment, culture medium were discarded and the cells washed three times with standard buffer (NaCl, 145 mM; KCl, 5 mM; HEPES, 20 mM; Glucose, 5.5 mM; MgCl2, 1 mM; CaCl2, 2 mM) added with Probenecid 2.5 mM. The plates were then incubated at 37° C. for 60 minutes in the dark with 2 μM FLUO-4AM dye to allow cell uptake of the FLUO-4AM, which is subsequently converted by intracellular esterases to FLUO-4, which is unable to leave the cells. After incubation, cells were washed three times with standard buffer to remove extracellular dye and 30 μL of buffer were left in each well after washing.
(§5) Compounds of the invention were tested in a final assay concentration range from 1.66×10^−5M to 1.58×10^−11M. Compounds of the invention were dissolved in dimethylsulfoxide (DMSO) at a stock concentration of 10 mM. These stock solutions were serially diluted with DMSO and 1 μL of each dilution was transferred to a 384 well compound plate. Immediately before introducing compound to the cells, buffer solution (50 μl/well) was added to this plate. To allow agonist stimulation of the cells, a stock plate containing a solution of human orexin A (hOrexin A) was diluted with buffer to final concentration just before use. This final concentration of hOrexin A was equivalent to the calculated EC80 for hOrexinA agonist potency in this test system. This value was obtained by testing hOrexinA in concentration response curve (at least 16 replicates) the same day of the experiment.
(§6) The loaded cells were then incubated for 10 min at 37° C. with test compound. The plates were then placed into a FLIPR™ (Molecular Devices, UK) to monitor cell fluorescence (λex=488 nm, λEM=540 nm) (Sullivan E, Tucker E M, Dale I L. Measurement of [Ca^2+]i using the fluometric imaging plate reader (FLIPR). In: Lambert DG (ed.), Calcium Signaling Protocols. New Jersey: Humana Press, 1999, 125-136). A baseline fluorescence reading was taken over a 5 to 10 second period, and then 10 μL of EC80 hOrexinA solution was added. The fluorescence was then read over a […] period.
(§7) Functional responses using FLIPR were measured as peak fluorescence intensity minus basal fluorescence and expressed as a percentage of a non-inhibited Orexin-A-induced response on the same plate. Iterative curve-fitting and parameter estimations were carried out using a four parameter logistic model and Microsoft Excel (Bowen W P, Jerman J C. Nonlinear regression using spreadsheets. Trends Pharmacol. Sci. 1995; 16: 413-417).

[2] = biological target: T2, human Orexin-1 receptor (Homo sapiens, UniProt O43613); assay: Antagonist affinity at human Orexin-1 receptor using FLIPR ([Ca2+]i); assay type: cell-based; details: functional pKi from IC50 by modified Cheng-Prusoff correction
T2 sequence (O43613 1-425 A280G): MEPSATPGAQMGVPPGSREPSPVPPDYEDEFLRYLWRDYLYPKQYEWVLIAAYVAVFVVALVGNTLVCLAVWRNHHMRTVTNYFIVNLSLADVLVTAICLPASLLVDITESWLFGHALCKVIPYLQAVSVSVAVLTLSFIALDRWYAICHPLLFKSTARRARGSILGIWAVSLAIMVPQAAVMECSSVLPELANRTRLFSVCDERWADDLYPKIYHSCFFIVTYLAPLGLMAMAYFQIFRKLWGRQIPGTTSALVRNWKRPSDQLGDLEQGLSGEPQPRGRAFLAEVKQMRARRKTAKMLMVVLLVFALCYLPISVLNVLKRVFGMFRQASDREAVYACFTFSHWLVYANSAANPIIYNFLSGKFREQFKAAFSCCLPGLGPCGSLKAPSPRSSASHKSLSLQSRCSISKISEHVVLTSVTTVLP
Excerpt: as §1, §2, §3, §4, §5, §6
as §7, with “413-417). […]” for “413-417).”

[3] = system: rats; details: cited from earlier work
[4] = system: rats; details: cited from earlier work; remark: listed apart in the source
[5] = system: freely-feeding rats; details: central administration, 4 hour time period; cited from earlier work
[6] = system: rats; details: central administration at the onset of the normal sleep period; cited from earlier work

| Compound | Ki [1] [µM] | fpKi Orexin 1 receptor [2] | other results |
| --- | --- | --- | --- |
| Cc1ccc(C(=O)N2C[C@@H]3C[C@@H]3C[C@H]2CNc2ccc(C(F)(F)F)cn2)nc1-c1ncccn1 [Example 53, N-[((1R,4S,6R)-3-{[5-methyl-6-(2-pyrimidinyl)-2-pyridinyl]carbonyl}-3-azabicyclo[4.1.0]hept-4-yl)methyl]-5-(trifluoromethyl)-2-pyridinamine] | > 3.31 | 6.0 | – |
| Cc1ccc(NC[C@@H]2C[C@H]3C[C@H]3CN2C(=O)c2nc(C)ccc2OCC2CC2)nc1 [Example 54, N-{[(1R,4S,6R)-3-({3-[(cyclopropylmethyl)oxy]-6-methyl-2-pyridinyl}carbonyl)-3-azabicyclo[4.1.0]hept-4-yl]methyl}-5-methyl-2-pyridinamine] | 0.00398 | 9.3 | – |
| CCOc1ccc(C)nc1C(=O)N1C[C@@H]2C[C@@H]2C[C@H]1CNc1ncc(C)cn1 [Example 55, N-[((1R,4S,6R)-3-{[3-(ethyloxy)-6-methyl-2-pyridinyl]carbonyl}-3-azabicyclo[4.1.0]hept-4-yl)methyl]-5-methyl-2-pyrimidinamine] | 0.1 | 9.1 | – |
| CCCOc1ccc(C)nc1C(=O)N1C[C@@H]2C[C@@H]2C[C@H]1CNc1cnc(C)c(C)n1 [Example 58, 5,6-dimethyl-N-[((1R,4S,6R)-3-{[6-methyl-3-(propyloxy)-2-pyridinyl]carbonyl}-3-azabicyclo[4.1.0]hept-4-yl)methyl]-2-pyrazinamine] | 0.00126 | 9.0 | – |
| Cc1nc2ccc(NC(=O)Nc3ccnc4cccnc34)cc2o1 [SB334867] | – | – | high-fat pellet self-administration [3]: attenuated; hedonic eating [4]: potently reduced |
| orexin-A: polypeptide ligand for the orexin-1 receptor; an agonist of the orexin receptors (QPLPDCCRQKTCSCRLYELLHGAGNHAAGILTL; ends and bridges not checked; cysteine pairing not given here; UniProt O43612 34-66, looked up) | – | – | increase of food intake over control rats receiving vehicle [5]: approximately four-fold; arousal (sleep/EEG) [6]: dose-related increase in arousal |

The next lines start with results.

| Ki [1] [µM] | fpKi Orexin 1 receptor [2] | Compound | other results |
| --- | --- | --- | --- |
| 0.0158 | 9.2 | Cc1ccc(-c2ncccc2C)c(C(=O)N2C[C@@H]3C[C@@H]3C[C@H]2CNc2ccc(C(F)(F)F)cn2)n1 [Example 51, N-({(1R,4S,6R)-3-[(3,6′-dimethyl-2,3′-bipyridin-2′-yl)carbonyl]-3-azabicyclo[4.1.0]hept-4-yl}methyl)-5-(trifluoromethyl)-2-pyridinamine] | – |
| 0.000398 | 9.2 | Cc1cnn(-c2ccc(C)nc2C(=O)N2C[C@@H]3C[C@@H]3C[C@H]2CNc2ccc(C(F)(F)F)cn2)c1 [Example 52, N-[((1R,4S,6R)-3-{[6-methyl-3-(4-methyl-1H-pyrazol-1-yl)-2-pyridinyl]carbonyl}-3-azabicyclo[4.1.0]hept-4-yl)methyl]-5-(trifluoromethyl)-2-pyridinamine] | – |
| – | 9.5 | CCOc1ccc(C)nc1C(=O)N1C[C@@H]2C[C@@H]2C[C@H]1CNc1ncc(C(F)(F)F)cn1 [Example 56, N-[((1R,4S,6R)-3-{[3-(ethyloxy)-6-methyl-2-pyridinyl]carbonyl}-3-azabicyclo[4.1.0]hept-4-yl)methyl]-5-(trifluoromethyl)-2-pyrimidinamine] | – |
| 0.0631 | 9.5 | CCCOc1ccc(C)nc1C(=O)N1C[C@@H]2C[C@@H]2C[C@H]1CNc1ncc(C(F)(F)F)cn1 [Example 57, N-[((1R,4S,6R)-3-{[6-methyl-3-(propyloxy)-2-pyridinyl]carbonyl}-3-azabicyclo[4.1.0]hept-4-yl)methyl]-5-(trifluoromethyl)-2-pyrimidinamine] | – |
| 1.58 | 6.0 | Cc1coc(-c2ccc(C)nc2C(=O)N2C[C@@H]3C[C@@H]3C[C@H]2CNc2ncc(C(F)(F)F)cn2)n1 [Example 59, N-[((1R,4S,6R)-3-{[6-methyl-3-(4-methyl-1,3-oxazol-2-yl)-2-pyridinyl]carbonyl}-3-azabicyclo[4.1.0]hept-4-yl)methyl]-5-(trifluoromethyl)-2-pyrimidinamine] | – |
